How the values were obtained:
Test in all cases: radiometric filter-binding kinase assay, Kinase HotSpot
Conditions in all cases: compound 0.5 µM; ATP 10 µM
PRKCD (human) = PRKCD (human) (UniProt Q05655)
CDK9 CCNK (human) = CDK9 CCNK (human) (UniProt O75909+P50750)
CAMK2A (human) = CAMK2A (human) (UniProt Q9UQM7)
CAMKK1 (human) = CAMKK1 (human) (UniProt Q8N5S9)
BMX (human) = BMX (human) (UniProt P51813)
CDC42BPB (human) = CDC42BPB (human) (UniProt Q9Y5S2)
MATK (human) = MATK (human) (UniProt P42679)
ADRBK2 (human) = ADRBK2 (human) (UniProt P35626)
GRK7 (human) = GRK7 (human) (UniProt Q8WTQ7)
ADRBK1 (human) = ADRBK1 (human) (UniProt P25098)
STK10 (human) = STK10 (human) (UniProt O94804)
PLK3 (human) = PLK3 (human) (UniProt Q9H4B4)
IRAK4 (human) = IRAK4 (human) (UniProt Q9NWZ3)
PRKCB1 (human) = PRKCB1 (human) (UniProt P05771)
ZAP70 (human) = ZAP70 (human) (UniProt P43403)
FLT1 (human) = FLT1 (human) (UniProt P17948)
LRRK2 (human) = LRRK2 (human) (UniProt Q5S007)
TAOK3 (human) = TAOK3 (human) (UniProt Q9H2K8)
FGR (human) = FGR (human) (UniProt P09769)
PAK4 (human) = PAK4 (human) (UniProt O96013)
MARK1 (human) = MARK1 (human) (UniProt Q9P0L2)
CSK (human) = CSK (human) (UniProt P41240)
MYLK (human) = MYLK (human) (UniProt Q15746)
ITK (human) = ITK (human) (UniProt Q08881)
MLTK (human) = MLTK (human) (UniProt Q9NYL2)
NEK4 (human) = NEK4 (human) (UniProt P51957)
BTK (human) = BTK (human) (UniProt Q06187)
MAP3K2 (human) = MAP3K2 (human) (UniProt Q9Y2U5)
PAK6 (human) = PAK6 (human) (UniProt Q9NQU5)
EPHA1 (human) = EPHA1 (human) (UniProt P21709)
ABL2 (human) = ABL2 (human) (UniProt P42684)
DSTYK (human) = DSTYK (human) (UniProt Q6XUX3)
CDC42BPA (human) = CDC42BPA (human) (UniProt Q5VT25)
SGK3 (human) = SGK3 (human) (UniProt Q96BR1)
PRKCI (human) = PRKCI (human) (UniProt P41743)
PRKCE (human) = PRKCE (human) (UniProt Q02156)
MARK4 (human) = MARK4 (human) (UniProt Q96L34)
PRKCG (human) = PRKCG (human) (UniProt P05129)
CDK5 CDK5R1 p25 (human) = CDK5 CDK5R1 p25 (human) (UniProt Q00535+Q15078)
HIPK2 (human) = HIPK2 (human) (UniProt Q9H2X6)
YES1 (human) = YES1 (human) (UniProt P07947)
SGK2 (human) = SGK2 (human) (UniProt Q9HBY8)

Sequence of PRKCI (human) (P41743 whole entry, looked up): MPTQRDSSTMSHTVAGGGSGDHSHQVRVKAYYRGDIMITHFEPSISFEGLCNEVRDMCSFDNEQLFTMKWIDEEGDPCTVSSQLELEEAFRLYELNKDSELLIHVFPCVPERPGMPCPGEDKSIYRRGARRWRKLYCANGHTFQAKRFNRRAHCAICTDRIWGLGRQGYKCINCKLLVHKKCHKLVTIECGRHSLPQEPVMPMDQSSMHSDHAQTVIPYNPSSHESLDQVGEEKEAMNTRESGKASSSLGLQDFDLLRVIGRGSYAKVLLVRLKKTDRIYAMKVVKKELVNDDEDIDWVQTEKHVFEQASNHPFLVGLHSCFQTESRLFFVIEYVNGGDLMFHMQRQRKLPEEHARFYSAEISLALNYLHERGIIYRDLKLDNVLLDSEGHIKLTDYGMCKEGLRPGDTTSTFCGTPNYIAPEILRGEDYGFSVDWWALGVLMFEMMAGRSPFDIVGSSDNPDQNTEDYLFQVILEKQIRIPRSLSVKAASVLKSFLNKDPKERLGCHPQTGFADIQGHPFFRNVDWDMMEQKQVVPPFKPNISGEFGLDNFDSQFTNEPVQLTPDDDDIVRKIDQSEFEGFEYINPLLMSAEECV
Sequence of MATK (human) (P42679 whole entry, looked up): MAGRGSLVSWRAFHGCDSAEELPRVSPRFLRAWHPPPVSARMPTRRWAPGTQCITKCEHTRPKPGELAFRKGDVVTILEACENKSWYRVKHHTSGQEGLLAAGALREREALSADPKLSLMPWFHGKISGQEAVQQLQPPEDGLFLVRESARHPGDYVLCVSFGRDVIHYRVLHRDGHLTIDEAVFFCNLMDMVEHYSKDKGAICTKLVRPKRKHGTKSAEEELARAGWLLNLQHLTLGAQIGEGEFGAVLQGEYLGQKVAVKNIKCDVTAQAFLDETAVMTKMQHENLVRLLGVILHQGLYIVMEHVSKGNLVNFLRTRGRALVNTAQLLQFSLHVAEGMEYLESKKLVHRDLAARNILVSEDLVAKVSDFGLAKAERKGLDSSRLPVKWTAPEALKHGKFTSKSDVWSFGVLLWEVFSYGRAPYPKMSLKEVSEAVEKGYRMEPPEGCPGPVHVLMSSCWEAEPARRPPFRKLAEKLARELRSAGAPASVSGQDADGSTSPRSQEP
Sequence of ITK (human) (Q08881 whole entry, looked up): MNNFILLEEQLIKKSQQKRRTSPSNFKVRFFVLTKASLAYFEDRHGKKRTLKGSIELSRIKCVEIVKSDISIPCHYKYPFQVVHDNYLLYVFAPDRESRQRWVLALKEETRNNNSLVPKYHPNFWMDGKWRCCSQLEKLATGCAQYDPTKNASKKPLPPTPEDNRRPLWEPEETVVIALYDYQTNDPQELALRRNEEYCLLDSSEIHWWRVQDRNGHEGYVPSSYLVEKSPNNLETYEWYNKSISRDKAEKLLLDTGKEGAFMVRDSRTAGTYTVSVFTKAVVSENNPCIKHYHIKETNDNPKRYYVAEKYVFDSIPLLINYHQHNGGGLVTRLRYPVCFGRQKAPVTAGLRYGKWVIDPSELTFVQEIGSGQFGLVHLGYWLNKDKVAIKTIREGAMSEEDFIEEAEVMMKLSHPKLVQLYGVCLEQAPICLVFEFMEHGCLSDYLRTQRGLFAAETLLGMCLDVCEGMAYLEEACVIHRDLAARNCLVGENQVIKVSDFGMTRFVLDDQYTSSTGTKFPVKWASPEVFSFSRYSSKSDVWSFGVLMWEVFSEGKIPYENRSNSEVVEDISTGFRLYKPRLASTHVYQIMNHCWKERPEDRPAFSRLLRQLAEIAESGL
Sequence of MYLK (human) (Q15746 whole entry, looked up): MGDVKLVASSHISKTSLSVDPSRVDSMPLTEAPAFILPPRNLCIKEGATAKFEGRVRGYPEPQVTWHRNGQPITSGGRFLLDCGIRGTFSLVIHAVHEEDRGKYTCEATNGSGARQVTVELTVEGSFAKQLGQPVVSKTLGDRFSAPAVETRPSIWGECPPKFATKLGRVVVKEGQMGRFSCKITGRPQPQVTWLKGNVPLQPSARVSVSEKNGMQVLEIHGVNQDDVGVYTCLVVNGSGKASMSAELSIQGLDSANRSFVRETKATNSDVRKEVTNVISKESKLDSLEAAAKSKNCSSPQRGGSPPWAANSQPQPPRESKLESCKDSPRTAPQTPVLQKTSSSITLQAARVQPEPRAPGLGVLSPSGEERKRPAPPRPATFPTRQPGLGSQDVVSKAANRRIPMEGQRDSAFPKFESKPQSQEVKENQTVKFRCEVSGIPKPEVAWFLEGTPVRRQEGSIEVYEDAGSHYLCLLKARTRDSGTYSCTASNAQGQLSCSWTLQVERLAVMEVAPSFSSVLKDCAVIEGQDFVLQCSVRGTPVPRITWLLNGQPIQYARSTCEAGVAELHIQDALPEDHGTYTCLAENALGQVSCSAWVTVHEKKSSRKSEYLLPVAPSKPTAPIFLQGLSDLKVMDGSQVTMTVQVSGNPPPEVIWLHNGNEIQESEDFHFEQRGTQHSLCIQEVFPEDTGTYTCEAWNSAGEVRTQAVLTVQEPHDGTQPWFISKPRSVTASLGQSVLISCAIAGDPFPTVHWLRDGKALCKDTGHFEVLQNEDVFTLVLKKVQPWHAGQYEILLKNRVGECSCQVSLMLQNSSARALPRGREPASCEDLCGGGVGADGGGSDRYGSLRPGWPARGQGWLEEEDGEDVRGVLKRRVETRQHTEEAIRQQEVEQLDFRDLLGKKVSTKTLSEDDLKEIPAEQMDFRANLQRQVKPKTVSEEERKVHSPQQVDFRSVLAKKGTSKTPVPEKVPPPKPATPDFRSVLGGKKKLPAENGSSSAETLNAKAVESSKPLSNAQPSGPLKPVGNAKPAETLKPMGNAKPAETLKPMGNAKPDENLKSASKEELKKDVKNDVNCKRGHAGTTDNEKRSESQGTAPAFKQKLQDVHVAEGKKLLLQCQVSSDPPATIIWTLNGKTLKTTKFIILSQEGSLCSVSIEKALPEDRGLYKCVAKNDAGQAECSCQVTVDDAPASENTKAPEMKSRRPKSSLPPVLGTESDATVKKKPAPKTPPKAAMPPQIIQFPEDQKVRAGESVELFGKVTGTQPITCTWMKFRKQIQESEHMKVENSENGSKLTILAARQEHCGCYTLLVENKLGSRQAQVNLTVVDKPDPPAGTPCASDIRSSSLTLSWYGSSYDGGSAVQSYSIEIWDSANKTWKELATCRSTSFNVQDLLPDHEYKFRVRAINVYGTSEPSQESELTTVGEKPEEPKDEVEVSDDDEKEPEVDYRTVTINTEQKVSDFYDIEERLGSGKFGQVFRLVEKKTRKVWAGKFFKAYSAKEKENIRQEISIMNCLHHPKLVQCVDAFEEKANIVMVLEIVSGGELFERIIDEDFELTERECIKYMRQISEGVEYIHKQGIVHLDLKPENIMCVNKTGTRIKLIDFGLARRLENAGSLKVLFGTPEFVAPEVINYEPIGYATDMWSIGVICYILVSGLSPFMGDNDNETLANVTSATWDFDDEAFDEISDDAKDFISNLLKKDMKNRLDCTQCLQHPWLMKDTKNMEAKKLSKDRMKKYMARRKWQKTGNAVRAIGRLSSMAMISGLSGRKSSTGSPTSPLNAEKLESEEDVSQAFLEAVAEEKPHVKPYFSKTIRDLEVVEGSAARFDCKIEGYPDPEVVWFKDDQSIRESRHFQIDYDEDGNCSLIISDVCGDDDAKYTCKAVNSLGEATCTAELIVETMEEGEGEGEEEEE
Sequence of CDK9 CCNK (human) (O75909 whole entry, looked up): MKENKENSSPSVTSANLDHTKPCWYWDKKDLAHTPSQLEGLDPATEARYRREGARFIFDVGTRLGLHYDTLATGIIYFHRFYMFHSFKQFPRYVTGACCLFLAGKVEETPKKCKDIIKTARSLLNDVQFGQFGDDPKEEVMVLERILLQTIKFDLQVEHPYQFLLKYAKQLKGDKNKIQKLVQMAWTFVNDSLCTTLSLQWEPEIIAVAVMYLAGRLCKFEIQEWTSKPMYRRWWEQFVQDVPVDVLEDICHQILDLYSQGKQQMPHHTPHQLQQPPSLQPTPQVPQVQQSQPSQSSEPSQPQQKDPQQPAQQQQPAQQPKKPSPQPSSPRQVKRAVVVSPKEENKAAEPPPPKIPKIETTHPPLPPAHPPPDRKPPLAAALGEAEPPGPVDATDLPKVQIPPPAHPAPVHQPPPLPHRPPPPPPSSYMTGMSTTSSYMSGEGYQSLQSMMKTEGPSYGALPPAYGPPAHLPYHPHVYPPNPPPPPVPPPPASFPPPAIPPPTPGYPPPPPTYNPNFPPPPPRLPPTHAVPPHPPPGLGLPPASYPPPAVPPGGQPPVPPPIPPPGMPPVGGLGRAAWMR
Sequence of CDK9 CCNK (human) (P50750 whole entry, looked up): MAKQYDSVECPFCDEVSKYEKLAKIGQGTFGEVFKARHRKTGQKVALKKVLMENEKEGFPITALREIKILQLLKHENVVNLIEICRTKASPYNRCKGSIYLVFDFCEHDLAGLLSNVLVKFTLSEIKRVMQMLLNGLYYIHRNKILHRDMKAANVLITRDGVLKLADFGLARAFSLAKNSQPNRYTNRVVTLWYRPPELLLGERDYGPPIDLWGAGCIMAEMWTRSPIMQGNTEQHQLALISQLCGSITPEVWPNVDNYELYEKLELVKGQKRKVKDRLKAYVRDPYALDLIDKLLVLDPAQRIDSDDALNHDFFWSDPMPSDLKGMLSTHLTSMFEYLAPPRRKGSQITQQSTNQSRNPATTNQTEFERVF
Sequence of IRAK4 (human) (Q9NWZ3 whole entry, looked up): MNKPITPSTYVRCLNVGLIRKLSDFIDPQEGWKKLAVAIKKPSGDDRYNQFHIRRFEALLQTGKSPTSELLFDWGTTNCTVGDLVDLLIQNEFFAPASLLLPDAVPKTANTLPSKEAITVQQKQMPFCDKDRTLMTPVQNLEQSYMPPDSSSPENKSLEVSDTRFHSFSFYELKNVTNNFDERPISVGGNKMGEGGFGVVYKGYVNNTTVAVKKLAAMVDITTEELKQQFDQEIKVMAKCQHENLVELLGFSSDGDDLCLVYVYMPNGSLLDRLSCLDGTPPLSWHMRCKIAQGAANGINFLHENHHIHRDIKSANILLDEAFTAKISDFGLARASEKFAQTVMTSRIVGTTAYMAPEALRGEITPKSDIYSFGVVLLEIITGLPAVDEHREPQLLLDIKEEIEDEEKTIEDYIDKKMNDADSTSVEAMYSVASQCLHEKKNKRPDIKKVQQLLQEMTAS

**Q.** Which results are given for `O=C1NC(=O)c2c1c1c3ccccc3[nH]c1n1cncc21`?
**A.** residual activity (PRKCD (human)): 65%; residual activity (CDK9 CCNK (human)): 83.8%; residual activity (CAMK2A (human)): 55.1%; residual activity (CAMKK1 (human)): 63.5%; residual activity (BMX (human)): 91.7%; residual activity (CDC42BPB (human)): 94.8%; residual activity (MATK (human)): 99.8%; residual activity (ADRBK2 (human)): 109%; residual activity (GRK7 (human)): 96.2%; residual activity (ADRBK1 (human)): 107%; residual activity (STK10 (human)): 69%; residual activity (PLK3 (human)): 48.2%; residual activity (IRAK4 (human)): 84.8%; residual activity (PRKCB1 (human)): 95%; residual activity (ZAP70 (human)): 87.8%; residual activity (FLT1 (human)): 58%; residual activity (LRRK2 (human)): 61.3%; residual activity (TAOK3 (human)): 66.9%; residual activity (FGR (human)): 94.8%; residual activity (PAK4 (human)): 97.1%; residual activity (MARK1 (human)): 36.7%; residual activity (CSK (human)): 83.3%; residual activity (MYLK (human)): 15.5%; residual activity (ITK (human)): 71.4%; residual activity (MLTK (human)): 78.7%; residual activity (NEK4 (human)): 88.4%; residual activity (BTK (human)): 83.9%; residual activity (MAP3K2 (human)): 97.9%; residual activity (PAK6 (human)): 85.5%; residual activity (EPHA1 (human)): 72.4%; residual activity (ABL2 (human)): 79.9%; residual activity (DSTYK (human)): 106%; residual activity (CDC42BPA (human)): 92.7%; residual activity (SGK3 (human)): 111%; residual activity (PRKCI (human)): 82.3%; residual activity (PRKCE (human)): 84.9%; residual activity (MARK4 (human)): 26.8%; residual activity (PRKCG (human)): 117%; residual activity (CDK5 CDK5R1 p25 (human)): 89.4%; residual activity (HIPK2 (human)): 94.4%; residual activity (YES1 (human)): 79.9%; residual activity (SGK2 (human)): 75.3%

**Q.** How did the residual activity (PRKCD (human)) turn out when `CN(C)CCCn1cc(C2=C(c3c[nH]c4ccccc34)C(=O)NC2=O)c2ccccc21` was run?
**A.** 4.73%

**Q.** What about the residual activity (CDK9 CCNK (human)) of the same compound?
**A.** 60.3%

**Q.** And the residual activity (CAMK2A (human))?
**A.** 35.2%

**Q.** What about the residual activity (CAMKK1 (human)) of the same compound?
**A.** 90.8%

**Q.** And the residual activity (BMX (human))?
**A.** 101%

**Q.** And the residual activity (CDC42BPB (human))?
**A.** 90.8%

**Q.** What about the residual activity (MATK (human)) of the same compound?
**A.** 100%

**Q.** And the residual activity (ADRBK2 (human))?
**A.** 99%

**Q.** What about the residual activity (GRK7 (human)) of the same compound?
**A.** 60.4%

**Q.** What about the residual activity (ADRBK1 (human)) of the same compound?
**A.** 96.5%

**Q.** What about the residual activity (STK10 (human)) of the same compound?
**A.** 19.4%

**Q.** And the residual activity (PLK3 (human))?
**A.** 94.9%

**Q.** What about the residual activity (IRAK4 (human)) of the same compound?
**A.** 135%

**Q.** And the residual activity (PRKCB1 (human))?
**A.** 3.24%

**Q.** And the residual activity (ZAP70 (human))?
**A.** 93%

**Q.** And the residual activity (FLT1 (human))?
**A.** 78.1%

**Q.** And the residual activity (LRRK2 (human))?
**A.** 89.8%

**Q.** And the residual activity (TAOK3 (human))?
**A.** 67.6%

**Q.** And the residual activity (FGR (human))?
**A.** 90.9%

**Q.** And the residual activity (PAK4 (human))?
**A.** 93.6%

**Q.** And the residual activity (MARK1 (human))?
**A.** 84.1%

**Q.** What about the residual activity (CSK (human)) of the same compound?
**A.** 97%

**Q.** And the residual activity (MYLK (human))?
**A.** 23.2%

**Q.** And the residual activity (ITK (human))?
**A.** 102%

**Q.** What about the residual activity (MLTK (human)) of the same compound?
**A.** 93.1%

**Q.** What about the residual activity (NEK4 (human)) of the same compound?
**A.** 94.3%

**Q.** And the residual activity (BTK (human))?
**A.** 93.8%

**Q.** And the residual activity (MAP3K2 (human))?
**A.** 82.8%

**Q.** And the residual activity (PAK6 (human))?
**A.** 101%

**Q.** And the residual activity (EPHA1 (human))?
**A.** 89.9%

**Q.** And the residual activity (ABL2 (human))?
**A.** 96.3%

**Q.** And the residual activity (DSTYK (human))?
**A.** 95%

**Q.** What about the residual activity (CDC42BPA (human)) of the same compound?
**A.** 97.1%

**Q.** What about the residual activity (SGK3 (human)) of the same compound?
**A.** 72.8%

**Q.** What about the residual activity (PRKCI (human)) of the same compound?
**A.** 55.9%

**Q.** And the residual activity (PRKCE (human))?
**A.** 0.493%

**Q.** And the residual activity (MARK4 (human))?
**A.** 66.9%

**Q.** What about the residual activity (PRKCG (human)) of the same compound?
**A.** 17.6%

**Q.** What about the residual activity (CDK5 CDK5R1 p25 (human)) of the same compound?
**A.** 80.2%

**Q.** And the residual activity (HIPK2 (human))?
**A.** 77.5%

**Q.** What about the residual activity (YES1 (human)) of the same compound?
**A.** 84.6%

**Q.** And the residual activity (SGK2 (human))?
**A.** 74.4%

**Q.** `CN(C)c1ccc(/C=C2\C(=O)Nc3ccccc32)cc1` was tested. Which residual activity (PRKCD (human)) did it give?
**A.** 95.6%

**Q.** What about the residual activity (CDK9 CCNK (human)) of the same compound?
**A.** 100%

**Q.** What about the residual activity (CAMK2A (human)) of the same compound?
**A.** 106%

**Q.** What about the residual activity (CAMKK1 (human)) of the same compound?
**A.** 98.6%

**Q.** And the residual activity (BMX (human))?
**A.** 92.2%

**Q.** And the residual activity (CDC42BPB (human))?
**A.** 89.5%

**Q.** What about the residual activity (MATK (human)) of the same compound?
**A.** 95.3%

**Q.** What about the residual activity (ADRBK2 (human)) of the same compound?
**A.** 98.9%

**Q.** And the residual activity (GRK7 (human))?
**A.** 100%

**Q.** And the residual activity (ADRBK1 (human))?
**A.** 101%

**Q.** And the residual activity (STK10 (human))?
**A.** 95.4%

**Q.** And the residual activity (PLK3 (human))?
**A.** 97%

**Q.** What about the residual activity (IRAK4 (human)) of the same compound?
**A.** 104%

**Q.** And the residual activity (PRKCB1 (human))?
**A.** 96.1%

**Q.** What about the residual activity (ZAP70 (human)) of the same compound?
**A.** 89.9%

**Q.** What about the residual activity (FLT1 (human)) of the same compound?
**A.** 92%

**Q.** What about the residual activity (LRRK2 (human)) of the same compound?
**A.** 89.8%

**Q.** What about the residual activity (TAOK3 (human)) of the same compound?
**A.** 95.1%

**Q.** And the residual activity (FGR (human))?
**A.** 90%

**Q.** And the residual activity (PAK4 (human))?
**A.** 101%

**Q.** And the residual activity (MARK1 (human))?
**A.** 97.3%

**Q.** What about the residual activity (CSK (human)) of the same compound?
**A.** 96.9%

**Q.** What about the residual activity (MYLK (human)) of the same compound?
**A.** 90.5%

**Q.** And the residual activity (ITK (human))?
**A.** 99%

**Q.** What about the residual activity (MLTK (human)) of the same compound?
**A.** 96.5%

**Q.** And the residual activity (NEK4 (human))?
**A.** 102%

**Q.** And the residual activity (BTK (human))?
**A.** 104%

**Q.** What about the residual activity (MAP3K2 (human)) of the same compound?
**A.** 99.8%

**Q.** And the residual activity (PAK6 (human))?
**A.** 96.9%

**Q.** What about the residual activity (EPHA1 (human)) of the same compound?
**A.** 93.7%

**Q.** And the residual activity (ABL2 (human))?
**A.** 100%

**Q.** And the residual activity (DSTYK (human))?
**A.** 103%

**Q.** What about the residual activity (CDC42BPA (human)) of the same compound?
**A.** 101%

**Q.** And the residual activity (SGK3 (human))?
**A.** 107%

**Q.** What about the residual activity (PRKCI (human)) of the same compound?
**A.** 101%

**Q.** And the residual activity (PRKCE (human))?
**A.** 92.6%

**Q.** And the residual activity (MARK4 (human))?
**A.** 97%

**Q.** What about the residual activity (PRKCG (human)) of the same compound?
**A.** 96.8%

**Q.** What about the residual activity (CDK5 CDK5R1 p25 (human)) of the same compound?
**A.** 102%

**Q.** And the residual activity (HIPK2 (human))?
**A.** 106%

**Q.** And the residual activity (YES1 (human))?
**A.** 89.3%

**Q.** And the residual activity (SGK2 (human))?
**A.** 98.6%

From the kinase profiling compilation of Christmann-Franck et al. (2016)
